Assay results from patent US6861432B2, “Piperazine derivatives that destabilize androgen receptors” (Schering Aktiengesellschaft, priority 2001, dated 2005).
Read-outs that look alike come from different tables or passages of the source.

What was measured:
androgen receptor = target: T1, androgen receptor (Homo sapiens, UniProt P10275, T878A); assay: cell-based; conditions: LNCaP, 48 h; for remaining activity at 1 µM: read-out: AR Content [%] At 1 μM; for remaining activity at 10 µM: read-out: AR Content [%] At 10 μM
T1 construct: 2*10^6 LNCaP cells in 6 ml of RPMI 1640 without phenol red are grown; endogenous in cells; host or cells: LNCaP (human prostate cell line)
T1 sequence (P10275 1-920 T878A): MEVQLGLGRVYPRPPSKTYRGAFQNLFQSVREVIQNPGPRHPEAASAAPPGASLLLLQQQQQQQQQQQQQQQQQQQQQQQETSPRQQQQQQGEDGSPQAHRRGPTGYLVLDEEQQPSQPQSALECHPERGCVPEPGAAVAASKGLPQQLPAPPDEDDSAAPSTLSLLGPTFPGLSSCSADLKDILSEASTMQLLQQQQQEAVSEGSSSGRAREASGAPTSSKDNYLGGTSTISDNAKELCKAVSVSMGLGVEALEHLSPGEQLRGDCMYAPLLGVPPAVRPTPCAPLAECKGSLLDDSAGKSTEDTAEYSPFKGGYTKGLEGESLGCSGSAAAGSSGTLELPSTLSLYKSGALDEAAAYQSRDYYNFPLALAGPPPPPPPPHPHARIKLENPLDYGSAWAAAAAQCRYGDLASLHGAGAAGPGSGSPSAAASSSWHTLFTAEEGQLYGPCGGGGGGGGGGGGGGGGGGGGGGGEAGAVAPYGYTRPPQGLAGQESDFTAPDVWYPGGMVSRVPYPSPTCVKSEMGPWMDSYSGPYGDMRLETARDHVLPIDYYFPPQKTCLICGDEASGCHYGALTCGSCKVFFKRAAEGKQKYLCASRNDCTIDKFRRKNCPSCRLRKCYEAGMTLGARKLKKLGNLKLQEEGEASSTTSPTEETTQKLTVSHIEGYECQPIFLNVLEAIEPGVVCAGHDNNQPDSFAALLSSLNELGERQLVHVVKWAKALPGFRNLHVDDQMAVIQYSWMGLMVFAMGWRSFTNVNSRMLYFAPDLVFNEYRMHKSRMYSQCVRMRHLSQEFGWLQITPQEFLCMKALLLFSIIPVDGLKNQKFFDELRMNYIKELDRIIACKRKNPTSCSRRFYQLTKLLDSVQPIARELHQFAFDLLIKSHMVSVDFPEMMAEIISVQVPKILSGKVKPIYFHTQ

seminal vesicles = assay: Model 4: Antiandrogenic action on testosterone-stimulated growth of accessory sexual glands of castrated mice; assay type: in vivo; conditions: testosterone propionate 0.03 mg/mouse, test substance 2 × 30 mg/kg s.c., 7 days, CPA 30 mg/kg s.c., bicalutamide from preceding tests
Method: The function and the size of accessory sexual glands (prostate and seminal vesicles) depend on androgens. In castrated animals, a growth of these (organs is induced by androgen administration. The simultaneous treatment with antiandrogens inhibits this growth, depending on the dose.
To examine the test substances, the mice were castrated. The treatment with testosterone propionate (0.03 mg/mouse) and the test substances (formulated 2×daily 30 mg/kg s.c. in benzyl benzoate-castor oil (10:90)) was on the same day. The treatment was carried out over 7 days and at the end of the test, the weights of the seminal vesicles and prostates were determined. The inhibition, in percent, of the seminal vesicle growth was calculated relative to the control groups (with and without testosterone). As a reference substance, cyproterone acetate (30 mg/kg s.c.) was used.

LNCaP cells = assay: Model 2: Inhibition of the proliferation of LNCaP cells (crystal violet assay; antagonism with 0.1 nM R1881, agonism without); assay type: cell-based, human; conditions: for IC50: LNCaP proliferation in the presence of 0.1 nM R1881, 7-8 days, read-out: IC50 [10^−7 M]; for % Inhibition at 1 μM: LNCaP proliferation, 1 μM substance, compared to cell growth in the presence of 0.1 nM R1881
A431 cells = assay: Model 3: Proliferation of non-prostate cells, A431; assay type: cell-based, human; conditions: 10 μM, 3-day treatment; percent of cell growth of solvent control
Method: (§1) To examine the growth-inhibiting action of test substances in cells that are not of prostatic origin, MaTu cells, MaTu/Adr cells, HaCaT cells and A431 cells were treated with test substances, whereby
(§2) Depending on the cell line, 1000-4000 cells/well were grown in RPMI 1640 medium (A431; MaTu and MaTu/Adr) or DMEM/HAM'SF12 medium (HaCaT) without phenol red with 2 mmol of L-glutamine and 10% CCS, and after a 24-hour incubation, they were treated with various concentrations of test substances diluted in culture medium. After a 3-day treatment period, the number of cells was determined by crystal violet assay, as in Model 2. The solvent control contained 0.1% ethanol.
(§3) The substances were tested at a concentration of 10 μM, and the data correspond to the proportion, in percent, of the cell growth of the solvent control. It turns out that the test substances exerted no inhibitory action on the four different cell lines or, in individual cases, only a slight inhibitory action.

MaTu cells = assay: Model 3: Proliferation of non-prostate cells, MaTu; assay type: cell-based, human; conditions: 10 μM, 3-day treatment; percent of cell growth of solvent control
Method: as §1, §2, §3

MaTu/Adr cells = assay: Model 3: Proliferation of non-prostate cells, MaTu/Adr; assay type: cell-based, human; conditions: 10 μM, 3-day treatment; percent of cell growth of solvent control
Method: as §1, §2, §3

HaCaT cells = assay: Model 3: Proliferation of non-prostate cells, HaCaT; assay type: cell-based, human; conditions: 10 μM, 3-day treatment; percent of cell growth of solvent control
Method: as §1, §2, §3

For `CSC(=O)N1CCN(CCCCCCN2C(=S)N(c3ccc(C#N)c(C(F)(F)F)c3)C(=O)C2(C)C)CC1` [Example 696, S-Methyl 4-[6-[3-[4-cyano-3-(trifluoromethyl)phenyl]-5,5-dimethyl-4-oxo-2-thioxoimidazolidin-1-yl]hexyl]piperazine-1-carbothioate], the remaining activity at 1 µM (androgen receptor) was 60% and the “% Inhibition of the MSB Growth” value (seminal vesicles) was 87%.
For `CCS(=O)(=O)N1CCN(CCCCCN2C(=S)N(c3ccc(C#N)c(C(F)(F)F)c3)C(=O)C2(C)C)CC1` [Example 629, 4-[3-[5-[4-(Ethylsulfonyl)piperazin-1-yl]pentyl]-4,4-dimethyl-5-oxo-2-thioxoimidazolidin-1-yl]-2-(trifluoromethyl)benzonitrile], the remaining activity at 1 µM (androgen receptor) was 54%, the “% Inhibition of the MSB Growth” value (seminal vesicles) was 98% and the IC50 (LNCaP cells; Homo sapiens) was 140 nM.
In the case of `CC(=O)O[C@]1(C(C)=O)CC[C@H]2[C@@H]3C=C(Cl)C4=CC(=O)[C@@H]5C[C@@H]5[C@]4(C)[C@H]3CC[C@@]21C` [CPA, 17-(acetyloxy)-6-chloro-1β,2β-dihydro-3′H-cyclopropa[1,2]pregna-1,4,6-triene-3,20-dione, reference compound], the “% Inhibition of the MSB Growth” value (seminal vesicles) is reported as 85%.
For `CC1=C(CCCCN2CCN(C(=O)c3ccccc3Cl)CC2)C(=O)N(c2ccc(C#N)c(C(F)(F)F)c2)C1=O` [Example 90, 4-[3-[4-[4-(2-Chlorobenzoyl)piperazin-1-yl]butyl]-2,5-dihydro-4-methyl-2,5-dioxo-1H-pyrrol-1-yl]-2-(trifluoromethyl)benzonitrile], the remaining activity at 10 µM (androgen receptor) was 34%, the “Proliferation in the Cell Line A431” value (A431 cells) was 98 +/− 7% and the “Proliferation in the Cell Line MaTu” value (MaTu cells) was 96 +/− 3%. For the same compound, the “Proliferation in the Cell Line MaTu/Adr” value (MaTu/Adr cells) was 80 +/− 2% and the “Proliferation in the Cell Line HaCaT” value (HaCaT cells) was 102 +/− 12%.
`COc1ccccc1C(=O)N1CCN(CCCCCCC2=C(C)C(=O)N(c3ccc(C#N)c(C(F)(F)F)c3)C2=O)CC1` [Example 248, 4-[2,5-Dihydro-3-[6-[4-(2-methoxybenzoyl)piperazin-1-yl]hexyl]-4-methyl-2,5-dioxo-1H-pyrrol-1-yl]-2-(trifluoromethyl)benzonitrile] was tested, and the remaining activity at 1 µM (androgen receptor) was 51%, the remaining activity at 10 µM (androgen receptor) was 22% and the “Proliferation in the Cell Line A431” value (A431 cells) was 102 +/− 5%. For the same compound, the “Proliferation in the Cell Line MaTu” value (MaTu cells) was 98 +/− 4%, the “Proliferation in the Cell Line MaTu/Adr” value (MaTu/Adr cells) was 88 +/− 4% and the IC50 (LNCaP cells; Homo sapiens) was 250 nM. The “Proliferation in the Cell Line HaCaT” value (HaCaT cells) was 104 +/− 7%.
For `CC(C)(O)C(=O)N1CCN(CCCCCCN2C(=S)N(c3ccc(C#N)c(C(F)(F)F)c3)C(=O)C2(C)C)CC1` [Example 656], the IC50 (LNCaP cells) was 26 nM and the “% Inhibition at 1 μM” value (LNCaP cells) was 99%.
With `CC1=C(CCCCCCN2CCN(C(=O)Nc3ccccc3)CC2)C(=O)N(c2ccc(C#N)c(C(F)(F)F)c2)C1=O` [Example 315, 4-[6-[1-[4-Cyano-3-(trifluoromethyl)phenyl]-2,5-dihydro-4-methyl-2,5-dioxo-1H-pyrrol-3-yl]hexyl]-N-phenylpiperazine-1-carboxamide] the remaining activity at 10 µM (androgen receptor) was 52%, the “Proliferation in the Cell Line A431” value (A431 cells) was 95 +/− 5% and the “Proliferation in the Cell Line MaTu” value (MaTu cells) was 95 +/− 7%. For the same compound, the “Proliferation in the Cell Line MaTu/Adr” value (MaTu/Adr cells) was 90 +/− 10%, the IC50 (LNCaP cells; Homo sapiens) was 380 nM and the “Proliferation in the Cell Line HaCaT” value (HaCaT cells) was 102 +/− 6%.
`CC(C)C(=O)N1CCN(CCCCN2C(=S)N(c3ccc(C#N)c(C(F)(F)F)c3)C(=O)C2(C)C)CC1` [Example 546, 4-[4,4-Dimethyl-3-[4-[4-(2-methyl-1-oxopropyl)piperazin-1-yl]butyl]-5-oxo-2-thioxoimidazolidin-1-yl]-2-(trifluoromethyl)benzonitrile] was tested, and the remaining activity at 1 µM (androgen receptor) was 68% and the “% Inhibition of the MSB Growth” value (seminal vesicles) was 98%.
With `CC1(C)C(=O)N(c2ccc(C#N)c(C(F)(F)F)c2)C(=S)N1CCCCCCN1CCN(C(=O)C(F)(F)F)CC1` [Example 670, 4-[4,4-Dimethyl-5-oxo-2-thioxo-3-[6-[4-(trifluoracetyl)piperazin-1-yl]hexyl]-imidazolidin-1-yl]-2-(trifluoromethyl)-benzonitrile] the IC50 (LNCaP cells) was 24 nM and the “% Inhibition at 1 μM” value (LNCaP cells) was 96%.
Compound `COc1ccc(C(=O)N2CCN(CCCCCC3=C(C)C(=O)N(c4ccc(C#N)c(C(F)(F)F)c4)C3=O)CC2)cc1OC` [Example 158, 4-[3-[5-[4-(3,4-Dimethoxybenzoyl)piperazin-1-yl]pentyl]-2,5-dihydro-4-methyl-2,5-dioxo-1H-pyrrol-1-yl]-2-(trifluoromethyl)benzonitrile] has a remaining activity at 10 µM (androgen receptor) of 22%.
`CC1=C(CCCCCCN2CCN(S(C)(=O)=O)CC2)C(=O)N(c2ccc(C#N)c(C(F)(F)F)c2)C1=O` [Example 296, 4-[2,5-Dihydro-3-methyl-4-[6-[4-(methylsulfonyl)piperazin-1-yl]hexyl]-2,5-dioxo-1H-pyrrol-1-yl]-2-(trifluoromethyl)benzonitrile] showed a remaining activity at 10 µM (androgen receptor) of 48%.
Work on `CC1=C(CCCCCN2CCN(S(=O)(=O)c3cccc4nsnc34)CC2)C(=O)N(c2ccc(C#N)c(C(F)(F)F)c2)C1=O` [Example 207, 4-[3-[5-[4-[(2,1,3-Benzothiadiazol-4-yl)sulfonyl]piperazin-1-yl]pentyl]-2,5-dihydro-4-methyl-2,5-dioxo-1H-pyrrol-1-yl]-2-(trifluoromethyl)benzonitrile] yielded a remaining activity at 10 µM (androgen receptor) of 42%.
